Measurements as given in patent publication US20250346584A1, “NOVEL KAPPA OPIOID LIGANDS” (The Scripps Research Institute, priority 2012, published 2025).

Target: kappa opioid receptor (OPRK1) (Homo sapiens (Human), UniProt P41145)
Experiment: OPRK1 antagonist assay (b-arrestin-2-TEV / b-lactamase reporter cell line, EC80 U-50488 challenge)
Format: cell-based
Conditions: for IC50: read-out: IC50 nM (% inhib if other than 50%), antagonist mode vs EC80 U-50488, NA = not active at concentrations up to 10 μM; for % inhib if other than 50%: % inhibition at the concentration given

Sequence of kappa opioid receptor (OPRK1) (P41145 whole entry): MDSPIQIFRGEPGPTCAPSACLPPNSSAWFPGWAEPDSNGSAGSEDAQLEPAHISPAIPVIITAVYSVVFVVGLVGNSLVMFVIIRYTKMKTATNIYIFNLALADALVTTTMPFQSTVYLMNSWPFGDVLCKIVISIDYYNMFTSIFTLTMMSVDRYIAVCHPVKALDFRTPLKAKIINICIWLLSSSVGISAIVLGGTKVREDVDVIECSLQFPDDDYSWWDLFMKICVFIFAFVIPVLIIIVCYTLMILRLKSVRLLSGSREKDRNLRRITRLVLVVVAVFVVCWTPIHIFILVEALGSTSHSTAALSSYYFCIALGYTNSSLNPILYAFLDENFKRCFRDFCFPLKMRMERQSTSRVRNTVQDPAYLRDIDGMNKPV

Row | SMILES | IC50 [nM] | % inhib if other than 50% [%]
1 | COC(=O)c1cc(Br)cnc1N1CC2C(C1)C2NC1CCCCC1 (centres unmarked) [C27] | 21000 | 
2 | COC(=O)c1cc(NC(=O)NC(C)C)cnc1N1CCC(NC2CCCCC2)CC1 [C35] | 17000 | 
3 | COC(=O)c1cnc(N2CCC(NC3CCCCC3)CC2)c([N+](=O)[O-])c1 [C36] | 17000 | 
4 | COC(=O)c1cc(Br)cnc1N1CCC(NC2CCCCC2)C(OC(C)=O)C1 (centres unmarked) [C49] | 17000 | 
5 | COC(=O)c1cc(Br)cnc1N1CCC(OC2CCCC2O)CC1 (centres unmarked) [C51] | > 20000 | 
6 | CCOC(=O)c1cc(C#N)c(C)nc1N1CCC(NC2CCCCC2)C(CO)C1 (centres unmarked) [C52] | > 20000 | 
7 | CCOC(=O)c1cc(C#N)c(C)nc1N1CCC(NC2CCCCC2)C(O)C1 (centres unmarked) [C53] | 13000 | 
8 | COC(=O)c1cc(Br)cnc1N1CCC(NC(=O)C2CCCCC2)C(O)C1 (centres unmarked) [C54] | > 20000 | 
9 | COC(=O)c1cc(Br)cnc1N1CCC(NC(=O)C2CCCCC2)CC1 [C58] | > 20000 | 
10 | CCOC(=O)/C=C/c1cnc(N2CCC(NC3CCCCC3)CC2)c(C(=O)OC)c1 [C59] | > 20000 | 
11 | CC(=O)c1cc(C)cnc1N1CC[C@@H](NC2CCCCC2)[C@H](O)C1 [C60] | 14000 | 
12 | COC1CN(c2ncc(Br)cc2C(C)=O)CCC1NC1CCCCC1 (centres unmarked) [C61] | 10000 | 
13 | COC(=O)c1cc(C2CC2)cnc1N1CCC(NC2CCCCC2)C(O)C1 (centres unmarked) [C66] | 17000 | 
14 | Cc1cnc(N2CC[C@@H](NC3CCCCC3)[C@H](O)C2)c(C#N)c1 [C67] | 37000 | 
15 | Cc1cnc(N2CCC(NC3CCCCC3)C(CO)C2)c(C#N)c1 (centres unmarked) [C68] | > 20000 | 
16 | COC1CN(c2ncc(C)cc2C=O)CCC1NC1CCCCC1 (centres unmarked) [C69] | 30000 | 
17 | COC1CN(c2ncc(C)cc2-c2ncco2)CCC1NC1CCCCC1 (centres unmarked) [C70] | 17000 | 
18 | Cc1ccc2nc(N3CCC(Nc4ncccn4)CC3)c(-c3nc(C)no3)cc2c1 [C83] | 47000 | 
19 | CCOC(=O)c1noc(-c2cc3cc(C)ccc3nc2N2CCC(NC3CCCCC3)C(CO)C2)n1 (centres unmarked) [C91] | 17700 | 
20 | CCOC(=O)c1c(Cl)cc(C)nc1N1CCC(N[C@@H]2CCCC[C@H]2O)CC1 [compound 2] | 4500 | 65
21 | COC(=O)c1cc(Br)cnc1N1CCC(NCCO)CC1 [compound 6] | 9200 | 80

Row | SMILES | IC50 [nM] | % inhib if other than 50% [%]
22 | COC(=O)c1cc(Br)cnc1N1CCC(NC2C3CC4CC(C3)CC2C4)CC1 (centres unmarked) [compound 11] | 2800 | 
23 | COC(=O)c1cc(Br)cnc1N1C2CCC1CC(NC1CCCCC1)C2 (centres unmarked) [compound 15] | 7700 | 
24 | COC(=O)c1cc(Br)cnc1N1CCC(N[C@H](C)C2CCCCC2)CC1 [compound 17] | 6800 | 
25 | COC(=O)c1cc(Br)cnc1N1CCC(N2CCCCC2)CC1 [compound 18] | 2100 | 
26 | COC(=O)c1cc(Br)cnc1N1CCC(N(C)C2CCCCC2)CC1 [compound 19] | 2700 | 
27 | COC(=O)c1cc(Br)cnc1N1CCC(NC2CC3CCC2(C)C3(C)C)CC1 (centres unmarked) [compound 22] | 10000 | 
28 | COC(=O)c1cc(Br)cnc1N1CCC(CNC2CCCCC2)CC1 [compound 31] | 3500 | 
29 | COC(=O)c1cc(-c2ccsc2)cnc1N1CCC(NC2CCCCC2)CC1 [compound 32] | 5300 | 
30 | O=C(O)c1cc(Br)cnc1N1CCC(NC2CCCCC2)CC1 [compound 34] | 5200 | 85
31 | COC(=O)c1cc(Br)cnc1N1CCC(O)C(NC2CCCCC2)C1 (centres unmarked) [compound 47] | 2800 | 
32 | COC(=O)c1cc(Br)cnc1N1CC2CN(C3CCCC3)CC2C1 (centres unmarked) [compound 50] | 1000 | 
33 | COC(=O)c1cc(Br)cnc1N1CCC(N(C)C2CCCCC2)C(O)C1 (centres unmarked) [compound 51] | 3000 | 
34 | COC(=O)c1cc(Br)cnc1N1CCC(NC2CCCCC2)C(F)C1 (centres unmarked) [compound 52] | 3400 | 
35 | COC(=O)c1cccnc1N1CCC(NC2CCCCC2C)C(O)C1 (centres unmarked) [compound 53] | 5600 | 
36 | COC(=O)c1cccnc1N1CCC(NC2CCOCC2)C(O)C1 (centres unmarked) [compound 56] | 7000 | 
37 | COC(=O)c1cccnc1N1CCC(NC2CCCCC2)C(O)C1 (centres unmarked) [compound 57] | 2200 | 
38 | COC(=O)c1cc(Br)cnc1N1CC(O)C(NC2CCCCC2)C(O)C1 (centres unmarked) [compound 62] | 2700 | 
39 | COC(=O)c1cc(Br)cnc1N1CCC(NC2CCCCC2CO)CC1 (centres unmarked) [compound 65] | 2300 | 
40 | COC(=O)c1cc(F)cnc1N1CCC(NC2CCCCC2)CC1 [compound 72] | 6600 | 
41 | OCc1cc(Br)cnc1N1CCC(NC2CCCCC2)CC1 [compound 76] | 11300 | 

Further lines, results first:

Row | IC50 [nM] | % inhib if other than 50% [%] | SMILES
42 | 231 |  | COC(=O)c1cc(Br)cnc1N1CCC(N[C@@H]2CCCC[C@H]2O)CC1 [compound 1]
43 | 287 |  | COC(=O)c1cc(Br)cnc1N1CCC(NC2CCCC2O)CC1 (centres unmarked) [compound 3]
44 | 133 |  | COC(=O)c1cc(Br)cnc1N1CCC(NC2CCCCC2)CC1 [compound 7]
45 | 579 |  | CCOC(=O)c1cc(Br)cnc1N1CCC(NC2CCCC[C@@H]2O)CC1 (some centres unmarked) [compound 8]
46 | 652 |  | COC(=O)c1cc(Br)cnc1N1CCC(NC2CCCC(O)C2)CC1 (centres unmarked) [compound 10]
47 | 765 |  | COC(=O)c1cc(Br)cnc1N1CCC(NC2CCC[C@H]2O)CC1 (some centres unmarked) [compound 12]
48 | 621 |  | COC(=O)c1cc(Br)cnc1N1CCC(NC2CCOCC2)CC1 [compound 13]
49 | 185 |  | COC(=O)c1cc(Br)cnc1N1CCC(NC2CCCCC2)C1 (centres unmarked) [compound 14]
50 | 536 |  | COC(=O)c1cc(Br)cnc1N1CCC(NC2CCC(C)CC2)CC1 (centres unmarked) [compound 16]
51 | 110 |  | COC(=O)c1cc(Br)cnc1N1CCC(NC2CCCCCC2)CC1 [compound 20]
52 | 317 |  | COC(=O)c1cc(Br)cnc1N1CCC(NC2CCCCCCC2)CC1 [compound 21]
53 | 854 |  | COC(=O)c1cc(Br)cnc1N1CCC(NC2CCCC(C)C2C)CC1 (centres unmarked) [compound 23]
54 | 120 |  | COC(=O)c1cc(Br)cnc1N1CCC(NC2CCCC2)CC1 [compound 24]
55 | 1200 |  | CCOC(=O)c1cccnc1N1CCC(NC2CCCCC2)C1 (centres unmarked) [compound 25]
56 | 267 |  | COC(=O)c1cc(Br)cnc1N1CCC(NC2CCCCC2OC)CC1 (centres unmarked) [compound 26]
57 | 473 |  | COC(=O)c1cc(Br)cnc1N1CCC(N[C@@H]2CCCCC[C@H]2O)CC1 [compound 27]
58 | 387 |  | COC(=O)c1cc(Br)cnc1N1CCC(NC2CC3CCC2C3)CC1 (centres unmarked) [compound 28]
59 | 88 |  | COC(=O)c1cc(I)cnc1N1CCC(NC2CCCCC2)C1 (centres unmarked) [compound 35]
60 | 79 |  | COC(=O)c1cc(I)cnc1N1CCC(NC2CCCCC2)CC1 [compound 36]
61 | 142 |  | COC(=O)c1cc(I)cnc1N1CCC(NC2CCCCC2O)CC1 (centres unmarked) [compound 37]
62 | 128 |  | CCOC(=O)c1cc(Br)cnc1N1CCC(NC2CCCCC2)CC1 [compound 38]
63 | 398 |  | CC(C)OC(=O)c1cc(Br)cnc1N1CCC(NC2CCCCC2)CC1 [compound 39]
64 | 159 |  | COC(=O)c1cc(Cl)cnc1N1CCC(NC2CCCCC2)CC1 [compound 40]
65 | 331 |  | Cc1noc(-c2cc(Br)cnc2N2CCC(NC3CCCCC3)CC2)n1 [compound 41]
66 | 18 |  | COC(=O)c1cc(I)cnc1N1CCC(NC2CCCCC2)C(O)C1 (centres unmarked) [compound 42]
67 | 52 |  | COC(=O)c1cc(Cl)cnc1N1CCC(NC2CCCCC2)C(O)C1 (centres unmarked) [compound 43]
68 | 79 |  | COC(=O)c1cc(Br)cnc1N1CCC(NC2CCCC2)C(O)C1 (centres unmarked) [compound 44]

Row | IC50 [nM] | % inhib if other than 50% [%] | SMILES
69 | 164 |  | COC(=O)c1cc(Br)cnc1N1CCC(NC2CCCCC2)C(C)C1 (centres unmarked) [compound 45]
70 | 25 |  | COC(=O)c1cc(I)cnc1N1CCC(NC2CCCC2)C(O)C1 (centres unmarked) [compound 46]
71 | 459 |  | COC(=O)c1cc(Br)cnc1N1CC(O)C(NC2CCCCC2)C1 (centres unmarked) [compound 48]
72 | 1300 |  | COC(=O)c1cc(Br)cnc1N1CC2CN(C3CCCCC3)CC2C1 (centres unmarked) [compound 49]
73 | 559 |  | COC(=O)c1cccnc1N1CCC(NC2CCCCC2OC)C(O)C1 (centres unmarked) [compound 54]
74 | 1800 |  | COC(=O)c1cccnc1N1CCC(NC2CCCCCC2)C(O)C1 (centres unmarked) [compound 55]
75 | 419 |  | COC(=O)c1cc(Br)cnc1N1CCC(NC2CCCCC2C)C(O)C1 (centres unmarked) [compound 58]
76 | 36 |  | COC(=O)c1cc(Br)cnc1N1CCC(NC2CCCCC2OC)C(O)C1 (centres unmarked) [compound 59]
77 | 68 |  | COC(=O)c1cc(Br)cnc1N1CCC(NC2CCCCCC2)C(O)C1 (centres unmarked) [compound 60]
78 | 54 |  | COC(=O)c1cc(Br)cnc1N1CCC(NC2CCOCC2)C(O)C1 (centres unmarked) [compound 61]
79 | 234 |  | COC(=O)c1cc(Br)cnc1N1CCC(NC2CCCCC2)C(C)(C)C1 (centres unmarked) [compound 63]
80 | 901 |  | COC(=O)c1cc(Br)cnc1N1CCC(NC2CCCCC2)CC1C (centres unmarked) [compound 64]
81 | 1700 |  | COC(=O)c1cc(Br)cnc1N1CCCC(NC2CCCCC2)CC1 (centres unmarked) [compound 66]
82 | 1400 |  | COC(=O)c1cc(Br)cnc1N1CC(NC2CCCCC2)C1 [compound 67]
83 | 40 |  | COC(=O)c1cc(Br)cnc1N1CCC(NC2CCCCC2)C(CO)C1 (centres unmarked) [compound 68]
84 | 53 |  | CCOC(=O)c1cc(Br)cnc1N1CCC(NC2CCCCC2)C(CO)C1 (centres unmarked) [compound 69]
85 | 110 |  | COC(=O)c1cc(Cl)cnc1N1CCC(NC2CCCCC2)C(CO)C1 (centres unmarked) [compound 70]
86 | 93 |  | CCOC(=O)c1cc(Cl)cnc1N1CCC(NC2CCCCC2)C(CO)C1 (centres unmarked) [compound 71]
87 | 205 |  | COC(=O)c1cc(Br)cnc1N1CCC(NC2CCCCC2)C(OC)C1 (centres unmarked) [compound 73]
88 | 58 |  | COC(=O)c1cc(Br)cnc1N1CCC(NC2CCCCCC2)C(CO)C1 (centres unmarked) [compound 74]
89 | 36 |  | COC(=O)c1cc(I)cnc1N1CCC(NC2CCCCCC2)C(CO)C1 (centres unmarked) [compound 75]
90 | 11 |  | COC(=O)c1cc(I)cnc1N1CCC(NC2CCCCC2)C(CO)C1 (centres unmarked) [compound 77]
91 | 1200 |  | COC(=O)c1cc(Br)cnc1N1CCC(NC2CC2)CC1 [compound 78]
92 | 25 |  | COC(=O)c1cc(Br)cnc1N1CCC(NC2CCCC2)C(CO)C1 (centres unmarked) [compound 79]
93 | 87 |  | COC(=O)c1cc(Br)cnc1N1CCC(NC2CCCCC2C)C(CO)C1 (centres unmarked) [compound 80]
94 | 126 |  | COC(=O)c1cc(Br)cnc1N1CCC(NC2CCOCC2)C(CO)C1 (centres unmarked) [compound 81]
95 | 127 |  | COC(=O)c1cc(Br)cnc1N1CCC(NC2CCCCC2OC)C(CO)C1 (centres unmarked) [compound 82]
